Test results taken from article PMC11946679 (Toxics, 2025).

System: human peripheral blood lymphocytes
Assay: CBMN cytome assay: micronuclei, nuclear buds, nucleoplasmic bridges
Details: 3 h
[1] = 1× + IRI 9.0 mg/L, propolis 1.36 mg/L, galangin 0.02 mg/L
[2] = 1× alone, propolis 1.36 mg/L, galangin 0.02 mg/L
[3] = 5× + IRI 9.0 mg/L, propolis 6.8 mg/L, galangin […]
[4] = 5× alone, propolis 6.8 mg/L, galangin […]
[5] = 10× + IRI 9.0 mg/L, propolis 13.6 mg/L, galangin 0.22 mg/L
[6] = 10× alone, propolis 13.6 mg/L, galangin 0.22 mg/L

Experimental: The CBMN assay was performed in line with standard protocols [8, 23].
To collect the blood sample, lithium heparin-coated tubes were used (BD vacutainer® with LH 170 I.U., Becton Dickinson: BD-Plymouth PL6 78P, UK).
There were 15 experimental groups altogether. The same experimental design was applied in two independent trials, each of which had two replicate cultures per experimental group; therefore, four replicate cultures for every single experimental group were established.
To induce cell division prior to exposure to the test chemicals, lymphocytes were stimulated with the mitogen phytohemagglutinin (PHA). Cultures were kept in a humidified atmosphere of 5% CO2 at 37 °C.
They started 41 h after PHA stimulation and lasted for 3 h at 37 °C.
Upon completion of exposure, lymphocyte cultures were centrifuged at 100× g. […] This procedure was timed for the 44th hour of lymphocyte cultivation, which represents a critical point for adding of cytoB to hinder cytokinesis and obtain binucleated cells. All treated and control cultures were further maintained at 37 °C until the end of the 72nd hour of cultivation, according to the above-mentioned standard protocols.
The first step in the preparation of microscopic slides was harvesting of cells by centrifugation (100× g), followed by treatment with 0.075 mol/L potassium chloride and succeeded by centrifugation. The sediments of cells were repeatedly fixed with methanol/acetic acid (3:1 v/v) followed by centrifugation. The final lymphocyte suspension was pipetted onto clean microscope slides. For staining, 5% aqueous solution of Giemsa dye was used. Slides were screened using a light microscope at 1000× magnification. For morphological discrimination of micronuclei (MNi), nuclear buds (NBs), nucleoplasmic bridges (NPBs) and cells in apoptosis or necrosis, the criteria by Fenech et al. [25] and Fenech [23] were applied. To determine their frequencies, per experimental point, a total of 4 × 1000 binucleated (BN) cells were scored.
This value was first used to estimate the number of MNi required to reach a decrease and an increase considered significant at a 5% significance level.

O=c1c(O)c(-c2ccccc2)oc2cc(O)cc(O)c12 [Galangin]
Distribution of BNMN Cells with 1 MN [1]: 45 c,p1,p5,p10,g1,g5,g10,p1+iri, p5+iri, p10+iri
Distribution of BNMN Cells with 2 MN [1]: 1
Distribution of BNMN Cells with 3 MN [1]: 0
Distribution of BNMN Cells with 4 MN [1]: 0
Distribution of BNNB Cells with 1 NB [1]: 33 c,p1,p5, p10,g1,g5,g10, p1+iri, p10+iri
Distribution of BNNB Cells with 2 NB [1]: 2
Distribution of BNNPB Cells with 1 NPB [1]: 0
Distribution of BNNPB Cells with 2 NPB [1]: 0
Micronuclei (MNi) Mean (BNMN)1000 ± SD [1]: 11.50 ± 3.70 c,p1,p5,p10,g1,g5, g10,p1+iri, p5+iri, p10+iri
Micronuclei (MNi) Mean (MNi)1000 ± SD [1]: 11.75 ± 4.11 c,p1,p5,p10,g1,g5,g10, p1+iri
Micronuclei (MNi) Total (BNMN)4000 [1]: 46 c,p1,p5,p10,g1,g5,g10, p1+iri, p5+iri, p10+iri
Micronuclei (MNi) Total (MNi)4000 [1]: 47 c,p1,p5,p10,g1,g5, g10,p1+iri
Nuclear Buds (NBs) Mean (BNNB)1000 ± SD [1]: 8.75 ± 0.96 c,p1,p5,p10, g1,g5,g10, p1+iri,p5+iri, p10+iri
Nuclear Buds (NBs) Mean (NBs)1000 ± SD [1]: 9.25 ± 1.50 c,p1,p5,p10,g1,g5,g10, p1+iri,p5+iri, p10+iri
Nuclear Buds (NBs) Total (BNNB)4000 [1]: 35 c,p1,p5,p10, g1,g5,g10, p1+iri,p5+iri,p10+iri
Nuclear Buds (NBs) Total (NBs)4000 [1]: 37 c,p1,p5, p10,g1,g5, g10, p1+iri, p5+iri, p10+iri
Nucleoplasmic Bridges (NPBs) Mean (BNNPB)1000 ± SD [1]: 0
Nucleoplasmic Bridges (NPBs) Mean (NPBs)1000 ± SD [1]: 0
Nucleoplasmic Bridges (NPBs) Total (BNNPB)4000 [1]: 0
Nucleoplasmic Bridges (NPBs) Total (NPBs)4000 [1]: 0
Micronuclei (MNi) Mean (MNi)1000 ± SD (1× + IRI 9.0 mg/L, propolis 1.36 mg/L, galangin 0.02 mg/L, listed as galangin): 11.75
Distribution of BNMN Cells with 1 MN [2]: 8
Distribution of BNMN Cells with 2 MN [2]: 0
Distribution of BNMN Cells with 3 MN [2]: 0
Distribution of BNMN Cells with 4 MN [2]: 0
Distribution of BNNB Cells with 1 NB [2]: 7
Distribution of BNNB Cells with 2 NB [2]: 0
Distribution of BNNPB Cells with 1 NPB [2]: 0
Distribution of BNNPB Cells with 2 NPB [2]: 0
Micronuclei (MNi) Mean (BNMN)1000 ± SD [2]: 2.00 ± 0.82
Micronuclei (MNi) Mean (MNi)1000 ± SD [2]: 2.00 ± 0.82
Micronuclei (MNi) Total (BNMN)4000 [2]: 8
Micronuclei (MNi) Total (MNi)4000 [2]: 8
Nuclear Buds (NBs) Mean (BNNB)1000 ± SD [2]: 1.75 ± 0.50
Nuclear Buds (NBs) Mean (NBs)1000 ± SD [2]: 1.75 ± 0.50
Nuclear Buds (NBs) Total (BNNB)4000 [2]: 7
Nuclear Buds (NBs) Total (NBs)4000 [2]: 7
Nucleoplasmic Bridges (NPBs) Mean (BNNPB)1000 ± SD [2]: 0
Nucleoplasmic Bridges (NPBs) Mean (NPBs)1000 ± SD [2]: 0
Nucleoplasmic Bridges (NPBs) Total (BNNPB)4000 [2]: 0
Nucleoplasmic Bridges (NPBs) Total (NPBs)4000 [2]: 0
Micronuclei (MNi) Mean (MNi)1000 ± SD (1× alone, propolis 1.36 mg/L, galangin 0.02 mg/L, listed as galangin): 2.00
Distribution of BNMN Cells with 1 MN [3]: 43 c,p1,p5, p10,g1,g5, g10,p1+iri, p5+iri, p10+iri
Distribution of BNMN Cells with 2 MN [3]: 1
Distribution of BNMN Cells with 3 MN [3]: 0
Distribution of BNMN Cells with 4 MN [3]: 0
Distribution of BNNB Cells with 1 NB [3]: 32 c,p1,p5, p10,g1, g5,g10, p1+iri, p10+iri
Distribution of BNNB Cells with 2 NB [3]: 0
Distribution of BNNPB Cells with 1 NPB [3]: 0
Distribution of BNNPB Cells with 2 NPB [3]: 0
Micronuclei (MNi) Mean (BNMN)1000 ± SD [3]: 11.00 ± 0.82 c,p1,p5,p10,g1,g5, g10,p1+iri, p5+iri
Micronuclei (MNi) Mean (MNi)1000 ± SD [3]: 11.25 ± 0.96 c,p1,p5,p10,g1,g5,g10, p1+iri
Micronuclei (MNi) Total (BNMN)4000 [3]: 44 c,p1,p5,p10,g1,g5,g10, p1+iri, p5+iri
Micronuclei (MNi) Total (MNi)4000 [3]: 45 c,p1,p5,p10,g1,g5, g10,p1+iri
Nuclear Buds (NBs) Mean (BNNB)1000 ± SD [3]: 8.00 ± 1.41 c,p1,p5,p10, g1,g5,g10, p1+iri,p10+iri
Nuclear Buds (NBs) Mean (NBs)1000 ± SD [3]: 8.00 ± 1.41 c,p1,p5,p10,g1,g5,g10, p1+iri,p10+iri
Nuclear Buds (NBs) Total (BNNB)4000 [3]: 32 c,p1,p5,p10, g1,g5,g10, p1+iri, p10+iri
Nuclear Buds (NBs) Total (NBs)4000 [3]: 32 c,p1,p5, p10,g1,g5, g10, p1+iri, p10+iri
Nucleoplasmic Bridges (NPBs) Mean (BNNPB)1000 ± SD [3]: 0
Nucleoplasmic Bridges (NPBs) Mean (NPBs)1000 ± SD [3]: 0
Nucleoplasmic Bridges (NPBs) Total (BNNPB)4000 [3]: 0
Nucleoplasmic Bridges (NPBs) Total (NPBs)4000 [3]: 0
Micronuclei (MNi) Mean (MNi)1000 ± SD (5× + IRI 9.0 mg/L, propolis 6.8 mg/L, galangin […], listed as galangin): 11.25
Distribution of BNMN Cells with 1 MN [4]: 9
Distribution of BNMN Cells with 2 MN [4]: 0
Distribution of BNMN Cells with 3 MN [4]: 0
Distribution of BNMN Cells with 4 MN [4]: 0
Distribution of BNNB Cells with 1 NB [4]: 9
Distribution of BNNB Cells with 2 NB [4]: 0
Distribution of BNNPB Cells with 1 NPB [4]: 0
Distribution of BNNPB Cells with 2 NPB [4]: 0
Micronuclei (MNi) Mean (BNMN)1000 ± SD [4]: 2.25 ± 0.50
Micronuclei (MNi) Mean (MNi)1000 ± SD [4]: 2.25 ± 0.50
Micronuclei (MNi) Total (BNMN)4000 [4]: 9
Micronuclei (MNi) Total (MNi)4000 [4]: 9
Nuclear Buds (NBs) Mean (BNNB)1000 ± SD [4]: 2.25 ± 0.96
Nuclear Buds (NBs) Mean (NBs)1000 ± SD [4]: 2.25 ± 0.96
Nuclear Buds (NBs) Total (BNNB)4000 [4]: 9
Nuclear Buds (NBs) Total (NBs)4000 [4]: 9
Nucleoplasmic Bridges (NPBs) Mean (BNNPB)1000 ± SD [4]: 0
Nucleoplasmic Bridges (NPBs) Mean (NPBs)1000 ± SD [4]: 0
Nucleoplasmic Bridges (NPBs) Total (BNNPB)4000 [4]: 0
Nucleoplasmic Bridges (NPBs) Total (NPBs)4000 [4]: 0
Micronuclei (MNi) Mean (MNi)1000 ± SD (5× alone, propolis 6.8 mg/L, galangin […], listed as galangin): 2.25
Distribution of BNMN Cells with 1 MN [5]: 44 c,p1,p5, p10,g1,g5, g10,p1+iri, p5+iri, p10+iri
Distribution of BNMN Cells with 2 MN [5]: 5
Distribution of BNMN Cells with 3 MN [5]: 0
Distribution of BNMN Cells with 4 MN [5]: 0
Distribution of BNNB Cells with 1 NB [5]: 30 c,p1,p5, p10,g1,g5,g10, p1+iri
Distribution of BNNB Cells with 2 NB [5]: 0
Distribution of BNNPB Cells with 1 NPB [5]: 0
Distribution of BNNPB Cells with 2 NPB [5]: 0
Micronuclei (MNi) Mean (BNMN)1000 ± SD [5]: 12.25 ± 0.82 c,p1,p5,p10,g1,g5, g10,p1+iri, p5+iri, p10+iri
Micronuclei (MNi) Mean (MNi)1000 ± SD [5]: 13.50 ± 1.29 c,p1,p5,p10,g1,g5,g10, p1+iri, p5+iri, p10+iri
Micronuclei (MNi) Total (BNMN)4000 [5]: 49 c,p1,p5,p10,g1,g5,g10, p1+iri, p5+iri, p10+iri
Micronuclei (MNi) Total (MNi)4000 [5]: 54 c,p1,p5,p10,g1,g5, g10,p1+iri, p5+iri, p10+iri
Nuclear Buds (NBs) Mean (BNNB)1000 ± SD [5]: 7.50 ± 1.29 c,p1,p5,p10, g1,g5,g10, p1+iri
Nuclear Buds (NBs) Mean (NBs)1000 ± SD [5]: 7.50 ± 1.29 c,p1,p5,p10,g1,g5,g10,p1+iri
Nuclear Buds (NBs) Total (BNNB)4000 [5]: 30 c,p1,p5,p10, g1,g5,g10, p1+iri
Nuclear Buds (NBs) Total (NBs)4000 [5]: 30 c,p1,p5, p10,g1,g5, g10,p1+iri
Nucleoplasmic Bridges (NPBs) Mean (BNNPB)1000 ± SD [5]: 0
Nucleoplasmic Bridges (NPBs) Mean (NPBs)1000 ± SD [5]: 0
Nucleoplasmic Bridges (NPBs) Total (BNNPB)4000 [5]: 0
Nucleoplasmic Bridges (NPBs) Total (NPBs)4000 [5]: 0
Micronuclei (MNi) Mean (MNi)1000 ± SD (10× + IRI 9.0 mg/L, propolis 13.6 mg/L, galangin 0.22 mg/L, listed as galangin): 13.50
Distribution of BNMN Cells with 1 MN [6]: 7
Distribution of BNMN Cells with 2 MN [6]: 0
Distribution of BNMN Cells with 3 MN [6]: 0
Distribution of BNMN Cells with 4 MN [6]: 0
Distribution of BNNB Cells with 1 NB [6]: 9
Distribution of BNNB Cells with 2 NB [6]: 0
Distribution of BNNPB Cells with 1 NPB [6]: 0
Distribution of BNNPB Cells with 2 NPB [6]: 0
Micronuclei (MNi) Mean (BNMN)1000 ± SD [6]: 1.75 ± 0.50
Micronuclei (MNi) Mean (MNi)1000 ± SD [6]: 1.75 ± 0.50
Micronuclei (MNi) Total (BNMN)4000 [6]: 7
Micronuclei (MNi) Total (MNi)4000 [6]: 7
Nuclear Buds (NBs) Mean (BNNB)1000 ± SD [6]: 2.25 ± 0.50
Nuclear Buds (NBs) Mean (NBs)1000 ± SD [6]: 2.25 ± 0.50
Nuclear Buds (NBs) Total (BNNB)4000 [6]: 9
Nuclear Buds (NBs) Total (NBs)4000 [6]: 9
Nucleoplasmic Bridges (NPBs) Mean (BNNPB)1000 ± SD [6]: 0
Nucleoplasmic Bridges (NPBs) Mean (NPBs)1000 ± SD [6]: 0
Nucleoplasmic Bridges (NPBs) Total (BNNPB)4000 [6]: 0
Nucleoplasmic Bridges (NPBs) Total (NPBs)4000 [6]: 0
Micronuclei (MNi) Mean (MNi)1000 ± SD (10× alone, propolis 13.6 mg/L, galangin 0.22 mg/L, listed as galangin): 1.75
